Test results taken from patent US8183239B2, “Substituted piperazines and piperidines as modulators of the neuropeptide Y2 receptor” (Janssen Pharmaceutica NV, priority 2005, dated 2012).
pIC50: −log10 of the molar value.

These compounds were tested against T1, Y2 receptors (Homo sapiens, UniProt P49146) (assay: Radioligand binding assay ([125I]PYY, KAN-Ts cell membranes)). Settings: Table 2, [125I]PYY 80 pM, average of results, read-out: IC50.
T1 construct: endogenous in cells; host or cells: KAN-Ts cells (membranes)
T1 sequence (P49146 1-381): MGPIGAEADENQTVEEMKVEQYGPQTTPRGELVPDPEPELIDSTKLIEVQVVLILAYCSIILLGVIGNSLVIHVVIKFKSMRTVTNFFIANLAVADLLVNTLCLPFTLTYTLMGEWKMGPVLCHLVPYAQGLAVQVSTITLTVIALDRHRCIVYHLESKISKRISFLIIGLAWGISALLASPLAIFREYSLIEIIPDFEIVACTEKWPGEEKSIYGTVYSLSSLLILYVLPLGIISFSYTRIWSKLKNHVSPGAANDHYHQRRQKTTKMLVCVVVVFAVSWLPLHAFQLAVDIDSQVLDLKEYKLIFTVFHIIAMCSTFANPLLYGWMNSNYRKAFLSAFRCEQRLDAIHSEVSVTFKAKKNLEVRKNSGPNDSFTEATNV
In short: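 IC50 values are means of three to eight experiments run in duplicate, fitted sigmoidally against specific binding (defined by […]). Competition used 80 pM [^125I]PYY for 1 h at room temperature on KAN-Ts membranes carrying native Y2, with filtration and scintillation counting.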

First: CCC(CC)C(=O)NCc1ccc(N2CCN(C(C(=O)N(CC)CC)c3ccccc3)CC2)c(F)c1 (stereo not shown) [Example 170, N-{4-[4-(Diethylcarbamoyl-phenyl-methyl)-piperazin-1-yl]-3-fluoro-benzyl}-2-ethyl-butyramide]
Second: CCC(CC)NC(=O)c1ccc(N2CCN(C(C(=O)N(CC)CC)c3ccccc3)CC2)c(F)c1 (stereo not shown) [Example 190, 4-[4-(Diethylcarbamoyl-phenyl-methyl)-piperazin-1-yl]-N-(1-ethyl-propyl)-3-fluoro-benzamide]
The pIC50 of the first is 1.35 log units higher: 6.59 for the first, 5.24 for the second.

Going from `CCOC(=O)C(c1ccccc1)N1CCN(c2ccc(N3CCN(C(CC)CC)S3(=O)=O)cc2F)CC1` (stereo not shown) [Example 171, {4-[2-Fluoro-4-(5-(3-pentyl)-1,2,5-thiadiazolidine-2-yl,1,1-dioxide)-phenyl]-piperazin-1-yl}-phenyl-acetic acid ethyl ester] to `CCCN1CCN(c2ccc(N3CCN(C(C(=O)OCC)c4ccccc4)CC3)c(F)c2)S1(=O)=O` (stereo not shown) [Example 179, {4-[2-Fluoro-4-(5-propyl-1,2,5-thiadiazolidine-2-yl,1,1-dioxide)-phenyl]-piperazin-1-yl}-phenyl-acetic acid ethyl ester], the pIC50 falls from 6.57 to 6.27 (0.30 log units).

First: CCCNS(=O)(=O)N(CCC)c1ccc(N2CCN(C(C(=O)N(CC)CC)c3ccccc3)CC2)c(F)c1 (stereo not shown) [Example 172, 2-{4-[4-(1,3-Dipropyl-sulfamoyl)-2-fluoro-phenyl]-piperazin-1-yl}-N,N-diethyl-2-phenyl-acetamide]
Second: CCN(CC)C(=O)C(c1ccccc1)N1CCN(c2ccc(C(=O)OC)cc2F)CC1 (stereo not shown) [Example 185, 4-[4-(Diethylcarbamoyl-phenyl-methyl)-piperazin-1-yl]-3-fluoro-benzoic acid methyl ester]
The pIC50 of the first is 0.66 log units higher: 6.28 for the first, 5.62 for the second. The first is the more potent here.

Compared with `CCN(CC)C(=O)C(c1ccccc1)N1CCN(c2ccc(N3CCN(C(=O)OC)S3(=O)=O)cc2F)CC1` (stereo not shown) [Example 173, 3-{4-[4-(Diethylcarbamoyl-phenyl-methyl)-piperazin-1-yl]-3-fluoro-phenyl}-1,2,5-thiadiazolidine, 1,1-dioxide-2-carboxylic acid methyl ester], `CCOC(=O)C(c1ccccc1)N1CCN(c2ccc(N3CCN(C(=O)OC)S3(=O)=O)cc2F)CC1` (stereo not shown) [Example 175, 3-{4-[4-(Ethoxycarbonyl-phenyl-methyl)-piperazin-1-yl]-3-fluoro-phenyl}-1,2,5-thiadiazolidine, 1,1-dioxide-2-carboxylic acid methyl ester] is lower in pIC50: 6.23 for the first, no more than 5.00 for the second. The first is the more potent here.

Compared with `CCN(CC)C(=O)C(c1ccccc1)N1CCN(c2ccc(N3CCNS3(=O)=O)cc2F)CC1` (stereo not shown) [Example 174, N,N-Diethyl-2-{4-[2-fluoro-4-(1,2,5-thiadiazolidine-2-yl,1,1-dioxide)-phenyl]-piperazin-1-yl}-2-phenyl-acetamide], `CCOC(=O)C(c1ccccc1)N1CCN(c2ccc(N3CCNS3(=O)=O)cc2F)CC1` (stereo not shown) [Example 176, {4-[2-Fluoro-4-(1,2,5-Thiadiazolidine-2-yl,1,1-dioxide)-phenyl]-piperazin-1-yl}-phenyl-acetic acid ethyl ester] is lower in pIC50: 5.40 for the first, no more than 5.00 for the second.

Going from `CCOC(=O)C(c1ccccc1)N1CCN(c2ccc(N3CCN(C4CCN(CC)C4)S3(=O)=O)cc2F)CC1` (stereo not shown) [Example 177, {4-[2-Fluoro-4-(5-(1-Ethyl-pyrrolidin-3-yl)-1,2,5-thiadiazolidine-2-yl, 1,1-dioxide)-phenyl]-piperazin-1-yl}-phenyl-acetic acid ethyl ester] to `CCOC(=O)C(c1ccccc1)N1CCN(c2ccc(N3CCN(C4CCOC4)S3(=O)=O)cc2F)CC1` (stereo not shown) [Example 178, {4-[2-Fluoro-4-(5-(tetrahydro-furan-3-yl)-1,2,5-thiadiazolidine-2-yl, 1,1-dioxide)-phenyl]-piperazin-1-yl}-phenyl-acetic acid ethyl ester], the pIC50 rises from no more than 5.00 to 5.54.

`CCOC(=O)C(c1ccccc1)N1CCN(c2ccc(N3CCN(C4CCCC4)S3(=O)=O)cc2F)CC1` (stereo not shown) [Example 180, {4-[2-Fluoro-4-(5-cyclopentyl-1,2,5-thiadiazolidine-2-yl,1,1-dioxide)-phenyl]-piperazin-1-yl}-phenyl-acetic acid ethyl ester] and `CCC(CC)C(=O)Nc1ccc(N2CCN(C(C(=O)NN)c3ccccc3)CC2)c(F)c1` (stereo not shown) [Example 184, 2-Ethyl-N-{3-fluoro-4-[4-(hydrazinocarbonyl-phenyl-methyl)-piperazin-1-yl]-phenyl}-butyramide] are within 0.2 log units of each other in pIC50: 6.11 for the first, 6.06 for the second.

Compared with `CCN(CC)C(=O)C(c1ccccc1)N1CC=C(c2ccc(C(=O)OC)cc2F)CC1` (stereo not shown) [Example 181, 4-[1-(Diethylcarbamoyl-phenyl-methyl)-1,2,3,6-tetrahydro-pyridin-4-yl]-3-fluoro-benzoic acid methyl ester], `CCC(CC)C(=O)Nc1ccc(C2=CCN(C(C(=O)N(CC)CC)c3ccccc3)CC2)c(F)c1` (stereo not shown) [Example 193, N-{4-[1-(Diethylcarbamoyl-phenyl-methyl)-1,2,3,6-tetrahydro-pyridin-4-yl]-3-fluoro-phenyl}-2-ethyl-butyramide] is 1.82 log units higher in pIC50: 5.03 for the first, 6.85 for the second.

Going from `CCC(CC)C(=O)Nc1cnc(N2CCN(C(C(=O)N(CC)CC)c3ccccc3)CC2)nc1` (stereo not shown) [Example 182, N-{2-[4-(Diethylcarbamoyl-phenyl-methyl)-piperazin-1-yl]-pyrimidin-5-yl}-2-ethyl-butyramide] to `CCC(CC)C(=O)Nc1ccc(N2CCN(C(C(=O)N(CC)CC)c3ccccc3)CC2)nn1` (stereo not shown) [Example 183, N-{6-[4-(Diethylcarbamoyl-phenyl-methyl)-piperazin-1-yl]-pyridazin-3-yl}-2-ethyl-butyramide], the pIC50 falls from 5.78 to 5.35 (0.43 log units).

`CCN(CC)C(=O)C(c1ccccc1)C1CCN(c2ccc(NC(=O)c3ccnn3CC)cc2F)CC1` (stereo not shown) [Example 186, 2-Ethyl-2H-pyrazole-3-carboxylic acid {4-[4-(diethylcarbamoyl-phenyl-methyl)-piperidin-1-yl]-3-fluoro-phenyl}-amide] and `CCN(CC)C(=O)C(c1ccccc1)C1CCN(c2ccc(NC(=O)c3cccn3CC)cc2F)CC1` (stereo not shown) [Example 187, 1-Ethyl-1H-pyrrole-2-carboxylic acid {4-[4-(diethylcarbamoyl-phenyl-methyl)-piperidin-1-yl]-3-fluoro-phenyl}-amide] are within 0.2 log units of each other in pIC50: 6.68 for the first, 6.83 for the second.

First: CCCCC(O)(c1ccccc1)C1CCN(c2ccc(NC(=O)C(CC)CC)cc2F)CC1 (stereo not shown) [Example 188, 2-Ethyl-N-{3-fluoro-4-[4-(1-hydroxy-1-phenyl-pentyl)-piperidin-1-yl]-phenyl}-butyramide]
Second: CCCCC(c1ccccc1)C1CCN(c2ccc(NC(=O)C(CC)CC)cc2F)CC1 (stereo not shown) [Example 189, 2-Ethyl-N-{3-fluoro-4-[4-(1-phenyl-pentyl)-piperidin-1-yl]-phenyl}-butyramide]
The pIC50 of the first is higher: 6.70 for the first, no more than 5.00 for the second. The first is the more potent here.

Compared with `CCN(CC)C(=O)C(c1ccccc1)N1CCN(c2ccc(Nc3ccccn3)cc2F)CC1` (stereo not shown) [Example 191, N,N-Diethyl-2-{4-[2-fluoro-4-(pyridin-2-ylamino)-phenyl]-piperazin-1-yl}-2-phenyl-acetamide], `CCN(CC)C(=O)C(c1ccccc1)N1CCN(c2ccc(Nc3ncccc3C)cc2F)CC1` (stereo not shown) [Example 192, N,N-Diethyl-2-{4-[2-fluoro-4-(3-methyl-pyridin-2-ylamino)-phenyl]-piperazin-1-yl}-2-phenyl-acetamide] is 1.12 log units lower in pIC50: 6.42 for the first, 5.30 for the second. The first is the more potent here.

First: CCC(CC)C(=O)Nc1ccc(C2CCN(C(C(=O)N(CC)CC)c3ccccc3)CC2)c(F)c1 (stereo not shown) [Example 194, N-{4-[1-(Diethylcarbamoyl-phenyl-methyl)-piperidin-4-yl]-3-fluoro-phenyl}-2-ethyl-butyramide]
Second: CCC(CC)C(=O)Nc1ccc(N2CCN(C(C(=O)N(CC)CC)c3cccc(Cl)c3)CC2)c(F)c1 (stereo not shown) [Example 195, N-(4-{4-[(3-Chloro-phenyl)-diethylcarbamoyl-methyl]-piperazin-1-yl}-3-fluoro-phenyl)-2-ethyl-butyramide]
The pIC50 of the first is 0.30 log units lower: 7.00 for the first, 7.30 for the second. The second is the more potent here.

`CCC(CC)C(=O)Nc1ccc(N2CCN(C(C(=O)N3CCC(F)(F)CC3)c3cccc(F)c3)CC2)c(F)c1` (stereo not shown) [Example 196, N-(4-{4-[2-(4,4-Difluoro-piperidin-1-yl)-1-(3-fluoro-phenyl)-2-oxo-ethyl]-piperazin-1-yl}-3-fluoro-phenyl)-2-ethyl-butyramide] and `CCC(CC)C(=O)Nc1ccc(N2CCN(C(C(=O)N3CCC(F)(F)C3)c3cccc(F)c3)CC2)c(F)c1` (stereo not shown) [Example 199, N-(4-{4-[2-(3,3-Difluoro-pyrrolidin-1-yl)-1-(3-fluoro-phenyl)-2-oxo-ethyl]-piperazin-1-yl}-3-fluoro-phenyl)-2-ethyl-butyramide] are within 0.2 log units of each other in pIC50: 6.97 for the first, 6.83 for the second.

Going from `CCC(CC)C(=O)Nc1ccc(N2CCN(C(C(=O)N(CC)CC)c3ccc(F)cc3F)CC2)c(F)c1` (stereo not shown) [Example 197, N-(4-{4-[Diethylcarbamoyl-(2,4-difluoro-phenyl)-methyl]-piperazin-1-yl}-3-fluoro-phenyl)-2-ethyl-butyramide] to `CCC(CC)C(=O)Nc1ccc(N2CCN(C(C(=O)N(CC)CC)c3cc(Br)ccc3F)CC2)c(F)c1` (stereo not shown) [Example 200, N-(4-{4-[(5-Bromo-2-fluoro-phenyl)-diethylcarbamoyl-methyl]-piperazin-1-yl}-3-fluoro-phenyl)-2-ethyl-butyramide], the pIC50 rises from 6.82 to 7.82 (1.00 log units). The second is the more potent here.

`CCC(CC)C(=O)Nc1ccc(N2CCN(C(C(=O)N3CCC(F)(F)C3)c3ccc(F)cc3)CC2)c(F)c1` (stereo not shown) [Example 198, N-(4-{4-[2-(3,3-Difluoro-pyrrolidin-1-yl)-1-(4-fluoro-phenyl)-2-oxo-ethyl]-piperazin-1-yl}-3-fluoro-phenyl)-2-ethyl-butyramide] was tested, and the pIC50 was 6.46.
